# Where “and” joins values, the source holds several entries; their conditions need not be identical. Equal values may be shown once. Read-outs that look alike come from different tables or passages of the source.
# Tests used:
# [1] = target: T1, recombinant human GIVA cPLA2 (Homo sapiens, UniProt P47712); assay: mixed micelle assay, GIVA cPLA2 inhibition; type: biochemical; settings: for inhibition at 0.091 mole fraction: read-out: GIVA cPLA2 % Inhibition; for GIVA cPLA2 X I(50): mole fraction of inhibitor in total substrate interface giving 50% inhibition
# T1 sequence (P47712 1-749): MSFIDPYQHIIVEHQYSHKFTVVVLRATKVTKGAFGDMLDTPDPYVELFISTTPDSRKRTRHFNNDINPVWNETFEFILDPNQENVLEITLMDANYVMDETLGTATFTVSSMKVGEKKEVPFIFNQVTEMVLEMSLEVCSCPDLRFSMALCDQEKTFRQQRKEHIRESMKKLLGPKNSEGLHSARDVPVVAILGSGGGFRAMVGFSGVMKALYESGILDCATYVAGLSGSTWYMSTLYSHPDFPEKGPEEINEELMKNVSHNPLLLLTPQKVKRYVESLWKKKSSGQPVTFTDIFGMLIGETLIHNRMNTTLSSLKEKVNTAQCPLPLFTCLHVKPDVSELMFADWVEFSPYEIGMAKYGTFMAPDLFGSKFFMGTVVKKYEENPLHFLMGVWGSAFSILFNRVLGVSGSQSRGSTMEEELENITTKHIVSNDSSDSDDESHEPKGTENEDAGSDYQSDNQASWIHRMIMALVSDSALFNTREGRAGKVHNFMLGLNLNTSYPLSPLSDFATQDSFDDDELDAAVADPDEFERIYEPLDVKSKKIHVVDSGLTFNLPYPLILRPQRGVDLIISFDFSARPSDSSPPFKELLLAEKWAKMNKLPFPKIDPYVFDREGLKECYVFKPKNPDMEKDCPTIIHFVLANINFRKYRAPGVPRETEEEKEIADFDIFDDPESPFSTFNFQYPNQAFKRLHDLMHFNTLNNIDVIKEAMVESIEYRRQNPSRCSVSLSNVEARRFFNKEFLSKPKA
# [2] = target: T2, human GVIA iPLA2 (Homo sapiens, UniProt O60733); assay: mixed micelle assay, GVIA iPLA2 inhibition; type: biochemical; settings: for inhibition at 0.091 mole fraction: read-out: GVIA iPLA2 % Inhibition
# T2 sequence (O60733 1-806): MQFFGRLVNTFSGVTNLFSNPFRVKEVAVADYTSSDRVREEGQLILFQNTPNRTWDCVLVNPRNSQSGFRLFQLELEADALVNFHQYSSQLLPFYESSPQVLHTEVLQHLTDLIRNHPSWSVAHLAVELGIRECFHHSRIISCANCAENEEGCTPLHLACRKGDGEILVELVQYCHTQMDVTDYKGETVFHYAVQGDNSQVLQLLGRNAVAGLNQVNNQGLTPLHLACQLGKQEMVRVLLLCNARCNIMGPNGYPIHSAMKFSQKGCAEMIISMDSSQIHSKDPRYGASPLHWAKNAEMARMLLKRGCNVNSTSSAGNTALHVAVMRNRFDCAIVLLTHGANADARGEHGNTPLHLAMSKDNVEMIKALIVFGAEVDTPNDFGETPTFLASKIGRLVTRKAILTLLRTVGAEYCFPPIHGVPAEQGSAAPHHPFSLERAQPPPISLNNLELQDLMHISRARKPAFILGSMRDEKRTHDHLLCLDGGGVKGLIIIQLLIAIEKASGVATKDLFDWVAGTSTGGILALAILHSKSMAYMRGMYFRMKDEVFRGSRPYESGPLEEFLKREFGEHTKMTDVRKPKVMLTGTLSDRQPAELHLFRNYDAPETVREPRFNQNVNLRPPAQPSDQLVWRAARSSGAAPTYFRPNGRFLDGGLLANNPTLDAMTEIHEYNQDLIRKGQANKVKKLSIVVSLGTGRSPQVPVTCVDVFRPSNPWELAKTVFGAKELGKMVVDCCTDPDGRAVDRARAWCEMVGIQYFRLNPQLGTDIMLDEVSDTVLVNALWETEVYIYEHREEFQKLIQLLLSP
# [3] = target: T3, human GV sPLA2 (Homo sapiens, UniProt P39877); assay: mixed micelle assay, GV sPLA2 inhibition; type: biochemical; settings: read-out: GV sPLA2 % Inhibition
# T3 sequence (P39877 21-138): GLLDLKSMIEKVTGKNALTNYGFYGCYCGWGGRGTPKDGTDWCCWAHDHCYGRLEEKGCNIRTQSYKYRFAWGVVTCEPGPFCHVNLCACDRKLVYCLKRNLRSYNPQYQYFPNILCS
# [4] = logP measured by HPLC; type: physicochemical
# [5] = system: RAW264.7 macrophages; assay: KLA-elicited eicosanoid production in macrophages (LC-MS/MS); type: cell-based, murine; settings: 5 μM inhibitor 1 h before KLA 100 ng/mL; supernatant at 24 h
# Experimental: It is well established that the toll-like receptor 4 (TLR4)-specific agonist Kdo2-lipid A (KLA) leads to GIVA cPLA2 activation, [52] and release of arachidonic acid in macrophages that is then converted into eicosanoids by cyclooxygenase-2[53]–[55]. […] The high levels of PGD2 compared to background in culture supernatants following KLA stimulation makes it an ideal marker for GIVA cPLA2 activity in macrophages. […] RAW264.7 macrophages were pre-treated with vehicle control, DMSO or 17f (5 μM) for one hour prior to stimulation with KLA (100 ng/mL). Culture supernatants were collected after 24 hours for eicosanoid quantification by LC-MS/MS.
# Figure 8 Inhibitor 17f inhibits KLA-elicited prostaglandin D2 biosynthesis by macrophages. […] Supernatants were collected 24 hr following stimulation for eicosanoid quantification.
# RAW264.7 murine macrophage cells (ATCC #TIB-71) were maintained at 37 °C, 5% CO2 in DMEM (Life Technologies 11995–065) containing 10% FBS (Gemini), 100 U/mL penicillin/streptomycin, 1 mM sodium pyruvate and 4 mM L-glutamine. […] Supernatants were collected at 24 hours for eicosanoid quantification. […] Online UPLC-electrospray ionization MS/MS quantitation of eicosanoids was performed on a QTRAP 6500 hybrid quadrupole/linear ion-trap mass spectrometer (AB Sciex) via multiple reaction monitoring (MRM) in negative ion mode. […]
# [6] = system: RAW264.7 macrophages; assay: cellular toxicity by trypan blue exclusion; type: cell-based, murine; settings: any concentration tested, data not shown
# [7] = target: T1, recombinant human GIVA cPLA2; parameters: method as in PMID 12086476, PMID 15214789; settings: mixed micelle assay; cited from earlier work
# [8] = at 0.091 mole fraction of inhibitor, mixed micelles
smiles,measurement,setting,value
"COC(=O)C(=O)CCCCc1ccccc1 [10a, Methyl 2-oxo-6-phenylhexanoate]",inhibition at 0.091 mole fraction,[1]; [8],< 25%
same,inhibition at 0.091 mole fraction,[2]; [8],72 ± 4%
same,inhibition at 0.091 mole fraction,[3]; [8],< 25%
"COC(=O)C(=O)CCCCc1ccc2ccccc2c1 [10b, Methyl 6-(naphthalen-2-yl)-2-oxohexanoate]",inhibition at 0.091 mole fraction,[1]; [8],55 ± 4%
same,inhibition at 0.091 mole fraction,[2]; [8],> 95%
same,GVIA iPLA2 X I(50),[2]; mole fraction of inhibitor in total substrate interface giving 50% inhibition,0.0052 mole fraction and 0.0052 ± 0.0007 mole fraction
same,inhibition at 0.091 mole fraction,[3]; [8],< 25%
"CCCCCCCCCCCCCCC(=O)C(=O)OC [10e, Methyl 2-oxohexadecanoate]",inhibition at 0.091 mole fraction,[1]; [8],68.2 ± 2.7%
same,inhibition at 0.091 mole fraction,[2],69.4 ± 12.2%
same,inhibition at 0.091 mole fraction,[3]; [8],27.5 ± 0.9%
"CCCCCCCCCCCCCCC(=O)C(=O)O [12e, 2-Oxohexadecanoic acid]",inhibition at 0.091 mole fraction,[1]; [8],78.4 ± 3.5%
same,inhibition at 0.091 mole fraction,[2],< 25%
same,inhibition at 0.091 mole fraction,[3]; [8],< 25%
"CC(C)(C)OC(=O)CCCOC(=O)C(=O)CCCCc1ccccc1 [16c, 4-(tert-Butoxy)-4-oxobutyl 2-oxo-6-phenylhexanoate]",inhibition at 0.091 mole fraction,[1]; [8],< 25%
same,inhibition at 0.091 mole fraction,[2],< 25%
same,inhibition at 0.091 mole fraction,[3]; [8],< 25%
"CCCCCCCCCCCCCCC(=O)C(=O)OCCCC(=O)O [17a, 4-((2-Oxohexadecanoyl)oxy)butanoic acid]",GIVA cPLA2 X I(50),[1],0.00008 ± 0.00001 mole fraction
same,inhibition at 0.091 mole fraction,[1],> 95%
same,inhibition at 0.091 mole fraction,[2],< 25%
same,inhibition at 0.091 mole fraction,[3],< 25%
same,melting point,,76 to 78 °C
"CCCCCCOc1ccc(CCCCC(=O)C(=O)OCCCC(=O)O)cc1 [17b, 4-((6-(4-(Hexyloxy)phenyl)-2-oxohexanoyl)oxy)butanoic acid]",GIVA cPLA2 X I(50),[1],0.00289 ± 0.00043 mole fraction
same,inhibition at 0.091 mole fraction,[1],> 95%
same,inhibition at 0.091 mole fraction,[2],< 25%
same,inhibition at 0.091 mole fraction,[3],52.6 ± 5.3%
"O=C(O)CCCOC(=O)C(=O)CCCCc1ccc(-c2ccccc2)cc1 [17d, 4-(6-(Biphenyl-4-yl)-2-oxohexanoyloxy)butanoic acid]",GIVA cPLA2 X I(50),[1],0.00068 mole fraction and 0.00068 ± 0.00007 mole fraction
same,times less potent than 17a on GIVA cPLA2,[1]; ratio of X I(50) values,eight
same,inhibition at 0.091 mole fraction,[1],> 95%
same,inhibition at 0.091 mole fraction,[2],< 25%
same,inhibition at 0.091 mole fraction,[3],< 25%
same,melting point,,101 to 103 °C
"CCCCCCCCCCCCCCC(=O)C(=O)OCCCCC(=O)O [17e, 5-((2-Oxohexadecanoyl)oxy)pentanoic acid]",inhibition at 0.091 mole fraction,[1]; [8],> 95%
same,GIVA cPLA2 X I(50),[1],0.00007 ± 0.00001 mole fraction
same,inhibition at 0.091 mole fraction,[2]; [8],25%
same,inhibition at 0.091 mole fraction,[3],< 25%
"O=C(O)CCCCOC(=O)C(=O)CCCCc1ccc(-c2ccccc2)cc1 [17f, 5-((6-([1,1′-Biphenyl]-4-yl)-2-oxohexanoyl)oxy)pentanoic acid]",increase in potency compared to GK174 on GIVA cPLA2,[1]; addition of the carboxylic moiety,10 fold
same,GIVA cPLA2 X I(50),[1],0.000078 ± 0.00001 mole fraction
same,inhibition at 0.091 mole fraction,[1],> 95%
same,inhibition at 0.091 mole fraction,[3],< 25%
same,chromatographic logP,[4],3.5
same,decrease in KLA-elicited PGD2 production,[5],over 50%
same,cellular toxicity,[6],did not show cellular toxicity
"O=C(O)CCCOC(=O)C(=O)CCCc1ccc(-c2ccccc2)cc1 [17g, 4-((5-([1,1′-Biphenyl]-4-yl)-2-oxopentanoyl)oxy)butanoic acid]",GIVA cPLA2 X I(50),[1],0.0065 ± 0.002 mole fraction
same,inhibition at 0.091 mole fraction,[1],> 95%
same,inhibition at 0.091 mole fraction,[2],84 ± 1.5%
same,inhibition at 0.091 mole fraction,[3],< 25%
same,melting point,,58 to 60 °C
"O=C(O)CCCCOC(=O)C(=O)CCCc1ccc(-c2ccccc2)cc1 [17h, 5-((5-([1,1′-Biphenyl]-4-yl)-2-oxopentanoyl)oxy)pentanoic acid]",inhibition at 0.091 mole fraction,[1]; [8],> 95%
same,GIVA cPLA2 X I(50),[1],0.0010 ± 0.0003 mole fraction
same,inhibition at 0.091 mole fraction,[2]; [8],94 ± 1.4%
same,inhibition at 0.091 mole fraction,[3],< 25%
"O=C1NC(=O)/C(=C/c2ccc(C(=O)NC[C@@H]3C[C@@H](SC(c4ccccc4)(c4ccccc4)c4ccccc4)CN3C(=O)c3ccccc3C(=O)c3ccc(F)cc3F)cc2)S1 [compound 1, pyrrophenone]",GIVA cPLA2 X I(50),[7],0.002 mole fraction
"CCCCCCCCCCOc1ccc(OCC(=O)Cn2cc(C(=O)OC)c3cc(C(=O)O)ccc32)cc1 [compound 4, reference compound]",GIVA cPLA2 X I(50),[1],0.00008 mole fraction and 0.00008 ± 0.000005^c mole fraction
same,inhibition at 0.091 mole fraction,[1],> 95%
"CCOC(=O)CCCOC(=O)C(=O)CCCCc1ccccc1 [compound 19, 4-Ethoxy-4-oxobutyl 2-oxo-6-phenylhexanoate]",inhibition at 0.091 mole fraction,[1]; [8],27.3 ± 4.8%
same,inhibition at 0.091 mole fraction,[2],< 25%
same,inhibition at 0.091 mole fraction,[3]; [8],< 25%
"CCCCCCCCCCCCCCC(O)C(=O)OCCCC(=O)O (stereo not drawn) [compound 20, 4-((2-Hydroxyhexadecanoyl)oxy)butanoic acid]",inhibition at 0.091 mole fraction,[1],< 25%
same,inhibition at 0.091 mole fraction,[2],< 25%
same,inhibition at 0.091 mole fraction,[3],41 ± 0.2%

# Reference: paper PMC5539244, “2-Oxoesters: A Novel Class of Potent and Selective Inhibitors of Cytosolic Group IVA Phospholipase A2” (Scientific Reports, 2017)
